Experimental data from PubChem BioAssay (NCI).
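Dose response: 5 concentrations. Exposure: 48 h. Format: 96-well plates. Endpoint: linear interpolation; highest concentration if not reached. At the GI50, growth is halved. At the TGI there is no net growth.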

Columns and labels:
Assay in all cases: NCI anticancer screen, dose series, 48 h
SK-MEL-2 melanoma = test system: SK-MEL-2 melanoma
NCI/ADR-RES ovarian = test system: NCI/ADR-RES ovarian
PC-3 prostate = test system: PC-3 prostate
A498 renal = test system: A498 renal
HOP-62 NSCLC = test system: HOP-62 NSCLC
SNB-75 CNS = test system: SNB-75 CNS
A549 NSCLC = test system: A549 NSCLC
HS 578T breast = test system: HS 578T breast
SK-MEL-28 melanoma = test system: SK-MEL-28 melanoma
HCT-15 colon = test system: HCT-15 colon
U251 CNS = test system: U251 CNS
MALME-3M melanoma = test system: MALME-3M melanoma
NCI-H23 lung = test system: NCI-H23 lung
UACC-257 melanoma = test system: UACC-257 melanoma
OVCAR-5 ovarian = test system: OVCAR-5 ovarian
IGROV1 ovarian = test system: IGROV1 ovarian
SW-620 colon = test system: SW-620 colon
UO-31 renal = test system: UO-31 renal
OVCAR-4 ovarian = test system: OVCAR-4 ovarian
BT-549 breast = test system: BT-549 breast
SN12C renal = test system: SN12C renal
HT29 colon = test system: HT29 colon
NCI-H522 lung = test system: NCI-H522 lung
MOLT-4 leukemia = test system: MOLT-4 leukemia
SR leukemia = test system: SR leukemia
RPMI-8226 leukemia = test system: RPMI-8226 leukemia
DU-145 prostate = test system: DU-145 prostate
HCC-2998 colon = test system: HCC-2998 colon
HL-60(TB) leukemia = test system: HL-60(TB) leukemia
SNB-19 CNS = test system: SNB-19 CNS
T-47D breast = test system: T-47D breast
786-0 renal = test system: 786-0 renal
MDA-MB-468 breast = test system: MDA-MB-468 breast
OVCAR-8 ovarian = test system: OVCAR-8 ovarian
SF-268 CNS = test system: SF-268 CNS
MCF7 breast = test system: MCF7 breast
EKVX NSCLC = test system: EKVX NSCLC
SK-OV-3 ovarian = test system: SK-OV-3 ovarian
COLO 205 colon = test system: COLO 205 colon
HOP-92 NSCLC = test system: HOP-92 NSCLC
NCI-H460 lung = test system: NCI-H460 lung
K-562 leukemia = test system: K-562 leukemia
UACC-62 melanoma = test system: UACC-62 melanoma
TK-10 renal = test system: TK-10 renal
MDA-MB-435 = test system: MDA-MB-435
LOX IMVI melanoma = test system: LOX IMVI melanoma
OVCAR-3 ovarian = test system: OVCAR-3 ovarian
MDA-MB-231 breast = test system: MDA-MB-231 breast
M14 melanoma = test system: M14 melanoma
RXF 393 renal = test system: RXF 393 renal
SF-295 CNS = test system: SF-295 CNS
ACHN renal = test system: ACHN renal
CAKI-1 renal = test system: CAKI-1 renal
NCI-H226 lung = test system: NCI-H226 lung
SK-MEL-5 melanoma = test system: SK-MEL-5 melanoma
HCT-116 colon = test system: HCT-116 colon
SF-539 CNS = test system: SF-539 CNS
CCRF-CEM leukemia = test system: CCRF-CEM leukemia
KM12 colon = test system: KM12 colon

## O=C1Nc2cc(-c3ccc(NS(=O)(=O)c4ccc(-c5ccccc5)cc4)cc3)ccc2/C1=C/c1ccc[nH]1
SK-MEL-2 melanoma
  GI50: 11.8 µM
  TGI: 24.4 µM
NCI/ADR-RES ovarian
  GI50: 6.29 µM
  TGI: 30.9 µM
PC-3 prostate
  GI50: 3.27 µM
  TGI: 18.1 µM
A498 renal
  GI50: 12.6 µM
  TGI: 25.1 µM
HOP-62 NSCLC
  GI50: 8.59 µM
  TGI: 21.8 µM
SNB-75 CNS
  GI50: 12.8 µM
  TGI: 35.6 µM
A549 NSCLC
  GI50: 1.82 µM
  TGI: 4.86 µM
HS 578T breast
  GI50: 12.2 µM
  TGI: 56.7 µM
SK-MEL-28 melanoma
  GI50: 3.77 µM
  TGI: 13.5 µM
HCT-15 colon
  GI50: 2.26 µM
  TGI: 7.86 µM
U251 CNS
  GI50: 2.18 µM
  TGI: 5.73 µM
MALME-3M melanoma
  GI50: 2.79 µM
  TGI: 9.7 µM
NCI-H23 lung
  GI50: 1.2 µM
  TGI: 5.91 µM
UACC-257 melanoma
  GI50: 5.84 µM
  TGI: 20.4 µM
OVCAR-5 ovarian
  GI50: 3.42 µM
  TGI: 14.3 µM
IGROV1 ovarian
  GI50: 8.34 µM
  TGI: 22.2 µM
SW-620 colon
  GI50: 2.45 µM
  TGI: 6.56 µM
UO-31 renal
  GI50: 10.7 µM
  TGI: 29.1 µM
OVCAR-4 ovarian
  GI50: 2.1 µM
  TGI: 11.9 µM
BT-549 breast
  GI50: 2.49 µM
  TGI: 7.75 µM
SN12C renal
  GI50: 3.07 µM
  TGI: 12 µM
HT29 colon
  GI50: 2.42 µM
  TGI: 6.71 µM
NCI-H522 lung
  GI50: 2.27 µM
  TGI: 7.94 µM
MOLT-4 leukemia
  GI50: 3.88 µM
  TGI: 17.7 µM
SR leukemia
  GI50: 1.9 µM
  TGI: 10.9 µM
RPMI-8226 leukemia
  GI50: 3.09 µM
  TGI: 15.7 µM
DU-145 prostate
  GI50: 2.09 µM
  TGI: 4.59 µM
HCC-2998 colon
  GI50: 4.88 µM
  TGI: 28.4 µM
HL-60(TB) leukemia
  GI50: 7.67 µM
  TGI: 31.7 µM
SNB-19 CNS
  GI50: 5.91 µM
  TGI: 18.7 µM
T-47D breast
  GI50: 0.136 µM
  TGI: 3.57 µM
786-0 renal
  GI50: 3.91 µM
  TGI: 13.9 µM
MDA-MB-468 breast
  GI50: 0.0402 µM
  TGI: 1.04 µM
OVCAR-8 ovarian
  GI50: 3.45 µM
  TGI: 12.2 µM
SF-268 CNS
  GI50: 4.26 µM
  TGI: 16.3 µM
MCF7 breast
  GI50: 0.0746 µM
  TGI: 1.54 µM
EKVX NSCLC
  GI50: 0.225 µM
  TGI: 8.94 µM
SK-OV-3 ovarian
  GI50: 13.3 µM
  TGI: 26 µM
COLO 205 colon
  GI50: 3.7 µM
  TGI: 14 µM
HOP-92 NSCLC
  GI50: 2.2 µM
  TGI: 7.22 µM
NCI-H460 lung
  GI50: 0.351 µM
  TGI: 2.13 µM
K-562 leukemia
  GI50: 3.8 µM
  TGI: 16.6 µM
UACC-62 melanoma
  GI50: 5.37 µM
  TGI: 19.7 µM
TK-10 renal
  GI50: 2.66 µM
  TGI: 11 µM
MDA-MB-435
  GI50: 5.71 µM
  TGI: 21 µM
LOX IMVI melanoma
  GI50: 2.59 µM
  TGI: 6.82 µM
OVCAR-3 ovarian
  GI50: 1.94 µM
  TGI: 4.65 µM
MDA-MB-231 breast
  GI50: 2.96 µM
  TGI: 11.6 µM
M14 melanoma
  GI50: 4.7 µM
  TGI: 16.8 µM
RXF 393 renal
  GI50: 2.48 µM
  TGI: 5.56 µM
SF-295 CNS
  GI50: 7.29 µM
  TGI: 19.8 µM
ACHN renal
  GI50: 6.16 µM
  TGI: 18.7 µM
CAKI-1 renal
  GI50: 5.64 µM
  TGI: 18.4 µM
NCI-H226 lung
  GI50: 1.9 µM
  TGI: 14.8 µM
SK-MEL-5 melanoma
  GI50: 6.91 µM
  TGI: 21.8 µM
HCT-116 colon
  GI50: 3.28 µM
  TGI: 11.2 µM
SF-539 CNS
  GI50: 3.66 µM
  TGI: 14.7 µM
CCRF-CEM leukemia
  GI50: 5.82 µM
  TGI: 18.6 µM
KM12 colon
  GI50: 2.48 µM
  TGI: 18.7 µM
